Numbered stars: 1 amine (or outer) side, 2 acyl side, 3 side chain; on linkers, the order of the positions; unused ones are H or OH. Square brackets hold non-standard residues; d marks the D form. Peptide text beside a SMILES is read from it. X1 = N#Cc1[nH]c2ccccc2c1C[C@@H](N[*:1])C(=O)[*:2]; dPen = CC(C)(S)[C@@H](N)C(=O)O
Experiments:
[1] = biological target: T1, ETB receptor (Sus scrofa, UniProt P35463); experiment: Endothelin binding inhibition test (125I-endothelin-1, porcine cerebellum membrane); conditions: 1.1 μM test compound; porcine cerebellum membrane (ETB receptors)
T1 construct: ETB receptors of porcine cerebellum membrane suspension used in the present experiments; from tissue; host or cells: porcine cerebellum membrane preparation
T1 sequence (P35463 27-443): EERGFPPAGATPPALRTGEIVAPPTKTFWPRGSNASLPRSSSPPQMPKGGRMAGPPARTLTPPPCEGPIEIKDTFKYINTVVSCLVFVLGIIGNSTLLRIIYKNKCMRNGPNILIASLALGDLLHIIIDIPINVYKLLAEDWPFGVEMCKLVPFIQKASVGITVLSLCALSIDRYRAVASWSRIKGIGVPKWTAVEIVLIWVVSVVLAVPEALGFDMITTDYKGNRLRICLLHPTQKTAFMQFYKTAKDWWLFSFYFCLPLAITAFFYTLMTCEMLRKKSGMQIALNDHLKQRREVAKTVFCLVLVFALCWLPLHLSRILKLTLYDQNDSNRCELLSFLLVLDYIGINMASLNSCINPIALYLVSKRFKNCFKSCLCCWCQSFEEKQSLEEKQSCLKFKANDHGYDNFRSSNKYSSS
Experimental: The cerebellum of porcine was homogenized in a buffer solution of 10 mM MOPS, pH 7.4, at 4° C. by a polytron. To the homogenate, sucrose was added to a concentration of 20%, and the mixture was centrifuged at 1,000×g for 15 minutes, and the supernatant was further centrifuged at 10,000×g for 15 minutes. The supernatant thereof was further centrifuged at 90,000×g for 40 minutes. The membrane precipitate thereby obtained was suspended in a buffer solution of 5 mM HEPES/Tris, pH 7.4, at a concentration of 3.3 mg/ml. Then, 16 μl of this membrane suspension was added to 340 μl of 50 mM tris/HCl buffer, pH 7.4, containing […] calcium chloride, 10 μM magnesium chloride, 0.1 mM PMSF, 1 μM pepstatin A, 2 μM leupeptin, 1 mM 1,10-phenanthroline and 0.1% bovine serum albumin. […] These mixtures were incubated at 25° C. for 4 hours, then subjected to filtration on a glass filter GF/C and then washed with 5 mM HEPES/Tris, pH 7.4, containing 0.3% bovine serum albumin. […] [formula] Each test was performed in triplicate.
The test compounds are indicated by compound Nos.

[2] = biological target: T2, ETA receptors (Sus scrofa, UniProt Q29010); experiment: 125I-ET-1 binding inhibition to porcine aorta membrane suspension; conditions: 1.1 μM; porcine aorta membrane suspension containing a large amount of ETA receptors
T2 construct: porcine aorta membrane suspension containing a large amount of ETA receptors; from tissue; host or cells: porcine aorta membrane suspension
T2 sequence (Q29010 21-427): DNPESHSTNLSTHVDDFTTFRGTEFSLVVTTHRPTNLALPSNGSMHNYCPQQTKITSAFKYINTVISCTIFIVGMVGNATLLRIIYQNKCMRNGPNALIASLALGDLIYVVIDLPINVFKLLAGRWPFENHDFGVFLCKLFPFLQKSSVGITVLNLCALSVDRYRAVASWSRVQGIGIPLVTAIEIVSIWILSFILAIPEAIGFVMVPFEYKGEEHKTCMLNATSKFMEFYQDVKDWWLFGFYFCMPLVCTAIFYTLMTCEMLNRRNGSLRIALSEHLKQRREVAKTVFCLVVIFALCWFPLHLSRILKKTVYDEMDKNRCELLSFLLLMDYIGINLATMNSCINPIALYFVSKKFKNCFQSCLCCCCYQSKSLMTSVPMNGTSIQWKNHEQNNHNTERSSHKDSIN

[3] = test system: human Girardi heart cells; experiment: Inhibition of endothelin-1-induced increase in intracellular calcium concentration (fura-2); assay type: cell-based; conditions: for inhibition of ET-1-induced increase in intracellular calcium concentration: 1.1 μM compound given 5 minutes before 100 nM ET-1, fura-2-loaded cells; for effect on the intracellular calcium concentration itself: compound alone, fura-2-loaded human Girardi heart cells
Experimental: Inhibitory activities of test compounds against endothelin-1-induced increase in intracellular calcium concentration of human Girardi heart cells
Antagonism of test compounds to endothelin-1-induced increase in intracellular calcium concentration was evaluated in human Girardi heart cells (Dainippon Seiyaku Co., Ltd.).
Cultured human Girardi heart cells in Flask were harvested using 0.25% trypsin and 0.02% EDTA. The collected cells were washed with Dulbecco's modification eagle medium containing 20 mM Hepes and 0.3% BSA (pH 7.4, D medium). Then the cells were suspended in D medium and incubated with 2 μM of fura-2 acetoxymethyl ester at 37° C. for 30 minutes. The cell suspensions were diluted with a 10-fold volume of D medium and incubated for 20 minutes. The fura-2-loaded cells were collected by centrifugation and resuspended in Krebs-Henseleit Hepes buffer (pH 7.4). The resultant suspension in a cuvette was continuously stirred at 37° C. throughout the following measurement process. Each test compound or vehicle was given 5 minutes before the addition of 100 nM ET-1, and fluorescence intensity at emission wavelength of 510 nm and excitation wavelength of 340 and 380 nm was monitored with a JASCO CAF-100 spectrofluorometer (Japan), and [Ca^2+ ]i values were calculated according to the reported method (G. Grynkiewicz et al., J. Biol. Chem. 260, 3440-3450 (1985)).

Molecule	inhibition at 1.1 µM [1] [%]	further results
COC(=O)C[C@H]1NC(=O)[C@@H](Cc2c(C#N)[nH]c3ccccc23)NC(=O)[C@H](CC(C)C)NC(=O)[C@@H](C(C)(C)SC)NC(=O)[C@@H]2CCCN2C1=O [Compound 10] (cyclo(L[X1][dD](OMe)P[dPen](Me)))	65	–
CCCC[C@@H](NC(=O)[C@@H](Cc1c(C#N)[nH]c2ccccc12)NC(=O)[C@H](CC(C)C)NC(=O)N1C(C)CCCC1C)C(=O)O (stereo partly drawn) [Compound 2]	99	–
cyclo(-DTrp-DCys(O3 Na)-Pro-DVal-Leu-) [compound 5, reference compound]	–	125I-endothelin-1 binding inhibition [1]: 0.6%; 125I-ET-1 binding inhibition [2]: 85%
CCC[C@@H](NC(=O)[C@@H](Cc1c(C#N)[nH]c2ccccc12)NC(=O)[C@@H](NC(=O)N1C(C)CCCC1C)C1CCCC1)C(=O)NC (stereo partly drawn) [Compound 9]	100	–
CCC[C@@H](NC(=O)[C@@H](Cc1c(C#N)[nH]c2ccccc12)NC(=O)[C@@H](NC(=O)N1C(C)CCCC1C)C1CCCC1)C(=O)OC (stereo partly drawn) [Compound 7]	96	–
CCCC[C@@H](NC(=O)[C@@H](Cc1c(C#N)[nH]c2ccccc12)NC(=O)[C@H](CC(C)(C)C)NC(=O)N1C(C)CCCC1C)C(=O)OC (stereo partly drawn) [Compound 3]	99	–
CCC[C@@H](NC(=O)[C@@H](Cc1c(C#N)[nH]c2ccccc12)NC(=O)[C@@H](NC(=O)N1C(C)CCCC1C)C1CCCC1)C(=O)O (stereo partly drawn) [Compound 8]	96	–
CCCC[C@@H](NC(=O)[C@@H](Cc1c(C#N)[nH]c2ccccc12)NC(=O)[C@H](CC(C)(C)C)NC(=O)N1C(C)CCCC1C)C(=O)O (stereo partly drawn) [Compound 4]	100	–
cyclo(-DTrp-DAsp-Pro-DThg-Leu-) [compound 6, reference compound]	–	125I-endothelin-1 binding inhibition [1]: 11%; 125I-ET-1 binding inhibition [2]: 82%
CCCC[C@@H](NC(=O)[C@@H](Cc1c(C#N)[nH]c2ccccc12)NC(=O)[C@@H](NC(=O)N1C(C)CCCC1C)C(C)C)C(=O)O (stereo partly drawn) [Compound 1]	96	inhibition of ET-1-induced increase in intracellular calcium concentration [3]: 94%; effect on the intracellular calcium concentration itself [3]: no effect

Continued, in another order:

inhibition at 1.1 µM [1] [%]	Molecule	further results
78	CC(C)C[C@@H]1NC(=O)[C@@H](C(C)C)NC(=O)[C@@H]2CCCN2C(=O)[C@@H](CC(=O)O)NC(=O)[C@@H](Cc2c(C#N)[nH]c3ccccc23)NC1=O [Compound 12] (cyclo(L[X1][dD]P[dV]))	–
97	CSC(C)(C)[C@H]1NC(=O)[C@@H]2CCCN2C(=O)[C@@H](CC(=O)O)NC(=O)[C@@H](Cc2c(C#N)[nH]c3ccccc23)NC(=O)[C@H](CC(C)C)NC1=O [Compound 11] (cyclo(L[X1][dD]P[dPen](Me)))	inhibition of ET-1-induced increase in intracellular calcium concentration [3]: 69%; effect on the intracellular calcium concentration itself [3]: no effect

Source: patent US5494897A, “Endothelin antagonistic peptide” (Banyu Pharmaceutical Co., Ltd., priority 1993, dated 1996)
